Experiments:
UGT85A3 [1] = biological target: T1, UGT85A3 (Arabidopsis thaliana, UniProt Q9LMF1); assay: Glycosylation activity of purified UGT85A3 on sugar acceptor substrates, LC-MS; format: biochemical; design: made in house; host or cells: E. coli BL21(DE3); conditions: for glycosylation activity of UGT85A3 on the sugar acceptor (product detected by LC-MS): 2 mM UDP-glucose, 1.5 mM sugar acceptor substrate, pH 7.5, 30° C., 1 hour
T1 sequence (Q9LMF1 1-488): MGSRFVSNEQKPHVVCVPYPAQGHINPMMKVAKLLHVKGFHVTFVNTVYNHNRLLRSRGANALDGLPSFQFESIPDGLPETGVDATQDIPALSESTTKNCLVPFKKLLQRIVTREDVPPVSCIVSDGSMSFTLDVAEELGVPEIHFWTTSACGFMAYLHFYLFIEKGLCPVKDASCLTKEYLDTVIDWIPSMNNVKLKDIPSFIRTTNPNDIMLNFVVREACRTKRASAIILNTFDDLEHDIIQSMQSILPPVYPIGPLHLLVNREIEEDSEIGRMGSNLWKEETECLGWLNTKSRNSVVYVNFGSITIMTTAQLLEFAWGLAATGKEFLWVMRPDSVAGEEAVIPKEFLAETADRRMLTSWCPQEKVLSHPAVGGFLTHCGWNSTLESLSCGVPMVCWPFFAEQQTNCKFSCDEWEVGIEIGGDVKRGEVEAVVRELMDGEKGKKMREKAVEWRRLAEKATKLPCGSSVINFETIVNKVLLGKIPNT
Description: Standard enzyme reaction conditions are as follows. […] LC Conditions Column: CAPCELL PAK C18-UG120 (2.0 mm I.D.×150 mm) Mobile phase: A: water (containing 0.05% formic acid), B: acetonitrile Gradient: linear concentration gradient of B from 15% to 90% over 15 minutes Flow rate: 0.2 ml per minute Column oven: 40° C. MS Conditions ESI (negative mode) SIM mode: (m/z 315, 338, 361, 363, 331, 354, 377, 429, etc.)

UGT85A1 = biological target: T2, UGT85A1 (Arabidopsis thaliana, UniProt Q9SK82); assay: Glycosylation activity of UGT85A1 on sugar acceptors, LC-MS; format: biochemical; conditions: for relative activity of UGT85A1 on sugar acceptors (in words, FIG. 12): measured per unit reaction time (5 minutes); for glycosylated product of UGT85A1 reaction detected (FIG. 11): same manner as Example 4, LC-MS
T2 construct: made in house; host or cells: E. coli
T2 sequence (Q9SK82 1-489): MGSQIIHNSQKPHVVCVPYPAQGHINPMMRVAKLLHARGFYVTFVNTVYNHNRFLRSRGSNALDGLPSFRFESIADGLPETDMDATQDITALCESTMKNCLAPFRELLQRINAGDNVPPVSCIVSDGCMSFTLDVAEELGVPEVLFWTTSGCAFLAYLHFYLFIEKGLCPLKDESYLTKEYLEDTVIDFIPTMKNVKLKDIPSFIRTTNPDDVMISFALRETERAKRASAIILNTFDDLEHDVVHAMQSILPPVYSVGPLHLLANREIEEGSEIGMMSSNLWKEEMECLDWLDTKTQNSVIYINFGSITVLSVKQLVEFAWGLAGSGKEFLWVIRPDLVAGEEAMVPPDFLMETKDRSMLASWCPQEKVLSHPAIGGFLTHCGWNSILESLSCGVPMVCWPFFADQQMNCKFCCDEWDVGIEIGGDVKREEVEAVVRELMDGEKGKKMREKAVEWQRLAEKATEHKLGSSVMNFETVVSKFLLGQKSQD
Description: (§1) Standard enzyme reaction conditions are as follows.
(§2) The enzyme reaction solution (5 μl) was analyzed by LC-MS under the following conditions.
In the same manner as shown in Example 4, linalool, 8-hydroxylinalool, geraniol and 8-hydroxygeraniol were used as sugar acceptors for activity measurement.

UGT85A3 [2] = biological target: T1, UGT85A3; conditions: 8-hydroxygeraniol as sugar acceptor; fraction of the UDP-glucose level
Description: as §1, §2

glycosylation activity of UGT85A3 on the sugar acceptor (product detected by LC-MS) (UGT85A3 [1])	relative activity of UGT85A1 on sugar acceptors (in words, FIG. 12) (UGT85A1)	glycosylated product of UGT85A1 reaction detected (FIG. 11) (UGT85A1)	Molecule	further results
no glycosylation activity			O=c1cc(-c2ccc(O)cc2)oc2cc(O)cc(O)c12 [Apigenin]	
no glycosylation activity			O=c1ccc2cc(O)c(O)cc2o1 [Esculetin]	
no glycosylation activity			O=C1C[C@@H](c2ccc(O)cc2)Oc2cc(O)cc(O)c21 [Naringenin]	
no glycosylation activity			O=c1c(O)c(-c2ccc(O)c(O)c2)oc2cc(O)cc(O)c12 [Quercetin]	

Further lines, the molecule ahead of its results:

Molecule	glycosylation activity of UGT85A3 on the sugar acceptor (product detected by LC-MS) (UGT85A3 [1])	relative activity of UGT85A1 on sugar acceptors (in words, FIG. 12) (UGT85A1)	glycosylated product of UGT85A1 reaction detected (FIG. 11) (UGT85A1)	further results
C/C(=C\CC/C(C)=C/CO)CO [8-hydroxygeraniol, 8-Hydroxygeraniol]	a peak with a molecular weight suggesting addition of one glucose molecule was obtained	higher activity	glycosylated products were detected	activity of UGT85A3 on the 8-hydroxylated form compared with geraniol / linalool (FIG. 7) (UGT85A3 [1]; UDP-glucose as sugar donor, product yields compared): higher activity; sugar acceptor selectivity of UGT85A1 (relative activity) (UGT85A1; highest activity set to 100%, FIG. 12): 100%
CC(C)=CCCC(C)CCO (stereo not shown) [citronellol]	glycosylation activity			
CC(C)=CCC/C(C)=C/CO [geraniol]		higher selectivity for geraniol than linalool	glycosylated products were detected	
C=CC(C)(O)CCC=C(C)C (stereo not shown) [linalool]		very low relative activity	glycosylated products were detected	
C=CC(C)(O)CCC=C(C)CCC=C(C)C (stereo not shown) [nerolidol]	glycosylation activity			
UDP-gluconic acid				product level with the sugar donor relative to that with UDP-glucose (FIG. 8) (UGT85A3 [2]): less than 1/10
